Data published in patent US7317038B2, “Nerve regeneration promoters containing semaphorin inhibitor as the active ingredient” (Dainippon Sumitomo Pharma Co., Ltd., priority 2000, dated 2008).
Entries after “also recorded” stand apart in the source; their conditions may differ.

Tests used:
[1] = biological target: T1, Sema3A (Mus musculus, UniProt O08665); assay: Inhibition of collapse activity by contact of Sema3A and the inhibitor (Pre-Mix); type: cell-based; conditions: final concentration 0.05 μg/ml
T1 construct: expressed in transfected cells; host or cells: COS7
T1 sequence (O08665 21-772): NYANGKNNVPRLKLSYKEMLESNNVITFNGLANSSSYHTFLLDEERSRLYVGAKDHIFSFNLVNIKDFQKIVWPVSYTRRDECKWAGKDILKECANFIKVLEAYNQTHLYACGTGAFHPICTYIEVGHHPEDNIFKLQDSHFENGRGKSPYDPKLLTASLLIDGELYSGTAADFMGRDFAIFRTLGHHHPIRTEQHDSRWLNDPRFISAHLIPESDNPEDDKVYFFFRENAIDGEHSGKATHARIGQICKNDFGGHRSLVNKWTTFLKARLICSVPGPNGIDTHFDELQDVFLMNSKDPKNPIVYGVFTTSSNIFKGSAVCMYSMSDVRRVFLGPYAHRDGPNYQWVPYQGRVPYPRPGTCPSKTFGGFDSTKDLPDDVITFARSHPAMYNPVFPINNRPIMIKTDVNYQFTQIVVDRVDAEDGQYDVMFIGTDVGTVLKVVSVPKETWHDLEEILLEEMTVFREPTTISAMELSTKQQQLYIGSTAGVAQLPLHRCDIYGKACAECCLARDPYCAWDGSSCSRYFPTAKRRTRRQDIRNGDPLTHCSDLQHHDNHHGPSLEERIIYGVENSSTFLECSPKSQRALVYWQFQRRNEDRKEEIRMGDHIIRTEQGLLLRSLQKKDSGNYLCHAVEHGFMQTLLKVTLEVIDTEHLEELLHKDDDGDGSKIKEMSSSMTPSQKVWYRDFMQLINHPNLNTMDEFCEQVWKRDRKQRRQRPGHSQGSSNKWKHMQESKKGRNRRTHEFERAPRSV
Description: For example, the inhibitory activity of SPF-3059-1 for the binding of Sema3A to Neuropilin-1 was actually examined by using the alkaline phosphatase-fused Sema3A (=Sema3A-AP) and Neuropilin-1-expressing COS7 cells. SPF-3059-1 is a compound discovered by the present inventors, which inhibits both collapse and neurite outgrowth inhibition induced by semaphorin 3A (Sema3A). […] Further, in order to elucidate the mechanism of the said inhibition, that is, in order to elucidate whether SPF-3059-1 interacts with Sema3A or with its receptor, the comparison was made by measuring collapse activity between (1) the collapse activity which was observed when a sample, to which SPF-3059-1 and Sema3A were mixed in advance at the concentration raising sufficient inhibitory activity (0.25 μg/ml of SPF-3059-1), was added to the culture solution of dorsal root ganglions and (2) the collapse activity which was observed when Sema3A was added to the above-mentioned culture solution after the addition of SPF-3059-1. The final concentration of SPF-3059-1 (0.05 μg/ml) in the culture solution was the same both for (1) and (2). […] From the above considerations, SPF-3059-1 is thought to act by a mechanism in which the binding of Sema3A to the receptor is inhibited by the direct action of SPF-3059-1 on Sema3A. […]

[2] = tested on: COS7 cells; assay: Effect on cell proliferation (MTT); type: cell-based; conditions: two days
Procedure: COS7 cells were seeded onto a 96-well plate (medium 100 μl/well) at 10000 cells per well. At the same time, SPF-3059-1 of various concentrations was added and the cells were cultivated for two days in the presence of 5% CO2 at 37° C. Each well was then added with 10 μl of MTT solution at 5 mg/ml and cultured for another one hour. Subsequently, the culture supernatant was removed and formazan (an MTT derivative produced in viable cells) accumulated in the cells was dissolved by the addition of 50 μl DMSO and then the absorbance at 570 nm was measured to determine the proliferation of COS7 cells. […] The longitudinal and lateral axes in the figure show cell proliferation and the SPF-3059-1 concentration, respectively. Besides, the standard deviation (n=4) was added to each column.
The same effect on cell proliferation as in Example 9 was examined for the compounds, SPF-3059-1, SPF-3059-2 and SPF-3059-5. The wells with these compounds were served as samples, the wells with PBS were served as control, and the wells for which the experiment was carried out without adding the cells was served as blank. IC50 (μg/ml), the inhibitory rate for cell proliferation, was determined, which is calculated by the equation shown below. The inhibitory rate for cell proliferation (%)=(1−(absorbance of a sample well−absorbance of the blank well)/(absorbance of the control well−absorbance of the blank well))×100

[3] = tested on: sciatic nerves that were crushed; assay: In vivo nerve regeneration after sciatic nerve crush; conditions: rat; 1 ug/day locally for 14 days; distal areas of 2 mm and 6 mm from the crush site
Procedure: Male Wister rats were purchased at 7-week-old (CHARLES RIVER JAPAN, INC.) and bred under the light and dark cycles for 12 hours. The rats had free access to solid feedstuff (CLEA Japan, Inc., CE2) and water, and were used in the experiment after about one week of preliminary breeding. Under pentbarbital anesthesia, sciatic nerve of the rat thighs was exposed, clipped for 30 sec with forceps of 5 mm width, and was thus crushed. The crush site was marked with 10-0 nylon thread. SPF-3059-1 was dissolved in PBS at 8.3 ug/ml and was locally administered to the lesion site for 14 consecutive days at a flow rate of 1 ug/day by using an osmotic pressure pump (2ML2, 5 ul/hr, alzet). PBS was administered to the controls. At Day 14 of administration, the sciatic nerves were excised and trimmed at the distal areas from the crush site (the positions of marking) by 2 mm, 6 mm and 10 mm. The incised sciatic nerves were fixed in 2.5% glutaraldehyde/0.1 M phosphate buffer for a day and a night. When they were fixed, nerves were dehydrated by alcohol and were embedded in epoxy resin. […] After the areas of sciatic nerves were measured, the myelinated fiber density was calculated by […].

SMILES: CC(=O)c1c(C)c(C(=O)C2COc3cc(O)c(O)c(C(=O)O)c3C2=O)cc2c(=O)c3c(C(=O)O)c(O)c(O)cc3oc12 (centres unmarked) [SPF-3059-1]
- inhibition of Sema3A collapse activity, Pre-Mix sample ([1]; Sema3A pre-mixed with 0.25 μg/ml compound): Sema3A activity was inhibited; also recorded: inhibition of collapse activity was observed
- inhibition of Sema3A collapse activity, compound and Sema3A independently added [1]: inhibitory activity will not be observed; also recorded: Inhibition of collapse activity was not observed
- IC50 ([2]; Chlorocebus aethiops, COS-7, 48 h, read-out: IC50, inhibitory rate for cell proliferation): > 300 µg/mL
- suppressing activity for cell proliferation (in words) [2]: no suppressing activity
- myelinated fiber density vs PBS-injected group [3]: increased more
